Data reported in patent publication EP3436445B1, “HISTONE DEMETHYLASE INHIBITORS” (Celgene Quanticel Research, Inc., priority 2016, dated 2017).
pIC50: −log10 of the molar value.

What was measured:
[1] = target: T1, JMJD2C (Homo sapiens, UniProt Q9H3R0); assay: JMJD2C in vitro enzyme inhibition assay (TR-FRET); type: biochemical; conditions: Table 5; 0.3 nM JMJD2C, H3K9me3-biotin labeled peptide
T1 construct: purchased BPS Bioscience 50105
T1 sequence (Q9H3R0 2-372): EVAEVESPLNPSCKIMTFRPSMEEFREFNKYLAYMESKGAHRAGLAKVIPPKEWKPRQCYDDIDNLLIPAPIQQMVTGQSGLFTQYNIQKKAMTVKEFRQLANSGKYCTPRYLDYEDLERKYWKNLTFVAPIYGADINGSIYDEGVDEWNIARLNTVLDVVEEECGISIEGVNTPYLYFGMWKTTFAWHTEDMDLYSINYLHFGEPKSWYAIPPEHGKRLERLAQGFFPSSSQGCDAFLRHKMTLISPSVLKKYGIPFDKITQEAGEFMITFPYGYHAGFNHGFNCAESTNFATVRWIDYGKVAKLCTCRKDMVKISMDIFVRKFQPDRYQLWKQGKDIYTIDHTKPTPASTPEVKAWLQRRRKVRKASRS
Description: (§1) This assay determines the ability of a test compound to inhibit Jarid1B, JMJD2C and JMJD3 demethylase activity. Baculovirus expressed Jarid1B (GenBank Accession #NM-006618, AA 2-751) was purchased from BPS Bioscience (Cat #50121) or custom made by MolecularThroughput. Baculovirus expressed JMJD2C (GenBank Accession #BC143571, AA 2-372) was purchased from BPS Bioscience (Cat#50105). Baculovirus expressed JMJD3 (GenBank Accession #NM-001080424, AA1043-end) was purchased from BPS Bioscience (Cat#50115).
The ability of test compounds to inhibit the activity of JMJD2C was determined in 384-well plate format under the following reaction conditions: 0.3 nM JMJD2C, 300 nM H3K9me3-biotin labeled peptide (Anaspec cat #64360), 2 µM alpha-ketoglutaric acid in assay buffer of 50 mM HEPES, pH7.3, 0.005% Brij35, 0.5 mM TCEP, 0.2 mg/ml BSA, 50 µM sodium L-ascorbate, and 2 µM ammonium iron(II) sulfate. Reaction product was determined quantitatively by TR-FRET after the addition of detection reagent Phycolink Streptavidin-allophycocyanin (Prozyme) and Europium-anti-di-methylated histone H3 lysine 9 (H3K9me2) antibody (PerkinElmer) in the presence of 5 mM EDTA in LANCE detection buffer (PerkinElmer) at a final concentration of 50 nM and 1 nM, respectively.
The assay reaction was initiated by the following: 2 µl of the mixture of 900 nM H3K9me3-biotin labeled peptide and 6 µM alpha-ketoglutaric acid with 2 µl of 11-point serial diluted inhibitor in 3% DMSO were added to each well of the plate, followed by the addition of 2 µl of 0.9 nM JMJD2C to initiate the reaction. The reaction mixture was incubated at room temperature for 30 minutes, and terminated by the addition of 6 µl of 5 mM EDTA in LANCE detection buffer containing 100 nM Phycolink Streptavidin-allophycocyanin and 2 nM Europium-anti-H3K9me2 antibody. Plates were read by EnVisionMultilabel Reader in TR-FRET mode (excitation at 320 nm, emission at 615 nm and 665 nm) after 1 hour incubation at room temperature. A ratio was calculated (665/615) for each well and fitted to determine inhibition constant (IC50).

[2] = target: T2, JMJD3 (Homo sapiens, UniProt O15054); assay: JMJD3 in vitro enzyme inhibition assay (AlphaScreen); type: biochemical; conditions: Table 5; 1 nM JMJD3, H3K27me3-biotin labeled peptide
T2 construct: purchased BPS Bioscience 50115
T2 sequence (O15054 1043-1682 isoform O15054-1): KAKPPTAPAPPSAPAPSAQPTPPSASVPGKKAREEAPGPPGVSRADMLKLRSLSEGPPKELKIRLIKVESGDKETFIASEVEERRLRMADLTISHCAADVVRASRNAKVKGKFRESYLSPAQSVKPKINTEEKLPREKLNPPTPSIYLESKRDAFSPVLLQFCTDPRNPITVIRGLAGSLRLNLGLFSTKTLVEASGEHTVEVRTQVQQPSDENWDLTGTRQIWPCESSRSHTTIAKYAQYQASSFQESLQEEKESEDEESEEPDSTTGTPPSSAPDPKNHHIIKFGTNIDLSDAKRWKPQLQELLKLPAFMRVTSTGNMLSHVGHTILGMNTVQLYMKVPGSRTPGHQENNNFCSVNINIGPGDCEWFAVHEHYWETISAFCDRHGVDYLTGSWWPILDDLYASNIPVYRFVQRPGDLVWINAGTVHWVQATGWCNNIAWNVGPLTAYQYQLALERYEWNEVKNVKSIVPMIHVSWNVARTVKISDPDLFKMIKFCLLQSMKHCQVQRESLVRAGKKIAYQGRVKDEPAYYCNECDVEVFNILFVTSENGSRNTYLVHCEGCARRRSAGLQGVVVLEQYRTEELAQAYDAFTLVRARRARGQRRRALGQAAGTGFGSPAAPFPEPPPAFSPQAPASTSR
Description: as §1
The ability of test compounds to inhibit the activity of JMJD3 was determined in 384-well plate format under the following reaction conditions: 1 nM JMJD3, 250 nM H3K27me3-biotin labeled peptide (Anaspec cat # 64367), 1 µM alpha-ketoglutaric acid in assay buffer of 50 mM HEPES, pH7.3, 0.005% Brij35, 0.5 mM TCEP, 0.2 mg/ml BSA, 50 µM sodium L-ascorbate, 5 µM ammonium iron(II) sulfate. Reaction product is determined quantitatively by AlphaScreen detection after the addition of detection reagents anti-H3K27me1 antibody, 5 µg/ml AlphaScreen® Streptavidin-coated Donor beads, and 5 µg/ml AlphaScreen® Protein A Acceptor beads in 50 mM HEPES, pH7.3, 10 mM NaCl, 0.005% Brij35, 10 mM EDTA, 2 mg/ml BSA.
The assay reaction was initiated by the following: 3 µl of the mixture of 750 nM H3K27me3-biotin labeled peptide and 3 µM alpha-ketoglutaric acid with 3 µl of 11-point serial diluted inhibitor in 3% DMSO are added to each well of 384 well Proxiplate (Perkin Elmer), followed by the addition of 3 µl of 3 nM JMJD3 to initiate the reaction. The reaction mixture is incubated at room temperature for 20 minutes, and terminated by the addition of 3 µl of appropriate dilution of anti H3K27me1 antibody in 50 mM HEPES, pH7.3, 10 mM NaCl, 0.005% Brij35, 10 mM EDTA, 2 mg/ml BSA. Plates will then incubated at room temperature for 1 hour, followed by addition of 3 µl of 25 µg/ml AlphaScreen® Streptavidin-coated Donor beads and AlphaScreen® Protein A Acceptor beads in 50 mM HEPES, pH7.3, 10 mM NaCl, 0.005% Brij35, 10 mM EDTA, 2 mg/ml BSA. Plates will then be read by EnVision Multilabel Reader in AlphaScreen mode after minimum 2 hour incubation at room temperature. The AlphaScreen signal for each well is used to determine inhibition constant (IC50).

For `FC(F)(F)c1[nH]nnc1-c1ccnc(-c2cn(Cc3ccccc3Cl)cn2)c1` [Example 64, 2-{1-[(2-chlorophenyl)methyl]-1H-imidazol-4-yl}-4-[5-(trifluoromethyl)-1H-1,2,3-triazol-4-yl]pyridine], the pIC50 [1] was < 5.00 and the pIC50 [2] was < 5.00.
With `Fc1ccc(Cn2cnc(-c3cc(-c4nn[nH]c4C(F)(F)F)ccn3)c2)c(F)c1` [Example 68, 2-{1-[(2,4-difluorophenyl)methyl]-1H-imidazol-4-yl}-4-[5-(trifluoromethyl)-1H-1,2,3-triazol-4-yl]pyridine] the pIC50 [1] was < 5.00 and the pIC50 [2] was < 5.00.
In the case of `Fc1ccc(CCn2cnc(-c3cc(-c4nn[nH]c4C(F)(F)F)ccn3)c2)c(F)c1` [Example 86, 2-{1-[2-(2,4-difluorophenyl)ethyl]-1H-imidazol-4-yl}-4-[5-(trifluoromethyl)-1H-1,2,3-triazol-4-yl]pyridine], the pIC50 [1] was < 5.00 and the pIC50 [2] was < 5.00.
For `Fc1cc(F)c(CCn2cnc(-c3cc(-c4nn[nH]c4C(F)(F)F)ccn3)c2)cc1F` [Example 81, 4-[5-(trifluoromethyl)-1H-1,2,3-triazol-4-yl]-2-{1-[2-(2,4,5-trifluorophenyl)ethyl]-1H-imidazol-4-yl}pyridine], the pIC50 [1] was < 5.00 and the pIC50 [2] was < 5.00.
With `Fc1cc(F)c(CCn2cnc(-c3cc(-c4nn[nH]c4C(F)(F)F)ccn3)c2)c(F)c1` [Example 82, 4-[5-(trifluoromethyl)-1H-1,2,3-triazol-4-yl]-2-{1-[2-(2,4,6-trifluorophenyl)ethyl]-1H-imidazol-4-yl}pyridine] the pIC50 [1] was < 5.00 and the pIC50 [2] was < 5.00.
`CC(C)(C)c1ccc(CCn2cnc(-c3cc(-c4nn[nH]c4C(F)(F)F)ccn3)c2)cc1` [Example 96, 2-{1-[2-(4-tert-butylphenyl)ethyl]-1H-imidazol-4-yl}-4-[5-(trifluoromethyl)-1H-1,2,3-triazol-4-yl]pyridine] was tested, and the pIC50 [1] was < 5.00 and the pIC50 [2] was < 5.00.
In the case of `COc1cccc2c1C(Cn1cnc(-c3cc(-c4nn[nH]c4C(F)(F)F)ccn3)c1)CCC2` (stereo not drawn) [Example 107, 2-{1-[(8-methoxy-1,2,3,4-tetrahydronaphthalen-1-yl)methyl]-1H-imidazol-4-yl}-4-[5-(trifluoromethyl)-1H-1,2,3-triazol-4-yl]pyridine], the pIC50 [1] was < 5.00 and the pIC50 [2] was < 5.00.
For `COc1ccc2c(c1)C(Cn1cnc(-c3cc(-c4nn[nH]c4C(F)(F)F)ccn3)c1)CCC2` (stereo not drawn) [Example 106, 2-{1-[(7-methoxy-1,2,3,4-tetrahydronaphthalen-1-yl)methyl]-1H-imidazol-4-yl}-4-[5-(trifluoromethyl)-1H-1,2,3-triazol-4-yl]pyridine], the pIC50 [1] was < 5.00 and the pIC50 [2] was < 5.00.
In the case of `COc1ccc(Cn2cnc(-c3cc(-c4nn[nH]c4C(F)(F)F)ccn3)c2)cc1` [Example 67, 2-{1-[(4-methoxyphenyl)methyl]-1H-imidazol-4-yl}-4-[5-(trifluoromethyl)-1H-1,2,3-triazol-4-yl]pyridine], the pIC50 [1] was 5.00 to 6.00 and the pIC50 [2] was < 5.00.
`Cc1ccccc1Cn1cnc(-c2cc(-c3nn[nH]c3C(F)(F)F)ccn2)c1` [Example 66, 2-{1-[(2-methylphenyl)methyl]-1H-imidazol-4-yl}-4-[5-(trifluoromethyl)-1H-1,2,3-triazol-4-yl]pyridine] was tested, and the pIC50 [1] was < 5.00 and the pIC50 [2] was < 5.00.
In the case of `FC(F)(F)c1[nH]nnc1-c1ccnc(-c2cn(CC3CCCc4ccccc43)cn2)c1` (stereo not drawn) [Example 58, 2-{1-[(1,2,3,4-tetrahydronaphthalen-1-yl)methyl]-1H-imidazol-4-yl}-4-[5-(trifluoromethyl)-1H-1,2,3-triazol-4-yl]pyridine], the pIC50 [1] was < 5.00 and the pIC50 [2] was < 5.00.
`FC(F)(F)c1[nH]nnc1-c1ccnc(-c2cn(Cc3ccccc3)cn2)c1` [Example 72, 2-(1-benzyl-1H-imidazol-4-yl)-4-[5-(trifluoromethyl)-1H-1,2,3-triazol-4-yl]pyridine] was tested, and the pIC50 [1] was < 5.00 and the pIC50 [2] was < 5.00.
`CC(C)C(c1ccccc1)n1cnc(-c2cc(-c3nn[nH]c3C(F)(F)F)ccn2)c1` (stereo not drawn) [Example 75, 2-[1-(2-methyl-1-phenylpropyl)-1H-imidazol-4-yl]-4-[5-(trifluoromethyl)-1H-1,2,3-triazol-4-yl]pyridine] was tested, and the pIC50 [1] was < 5.00 and the pIC50 [2] was < 5.00.
For `CCOc1ccccc1CCn1cnc(-c2cc(-c3nn[nH]c3C(F)(F)F)ccn2)c1` [Example 59], the pIC50 [1] was < 5.00 and the pIC50 [2] was < 5.00.
For `Fc1ccc(CCn2cnc(-c3cc(-c4nn[nH]c4C(F)(F)F)ccn3)c2)cc1` [Example 77], the pIC50 [1] was < 5.00 and the pIC50 [2] was 5.00 to 6.00.
`COc1ccc(CCn2cnc(-c3cc(-c4nn[nH]c4C(F)(F)F)ccn3)c2)cc1` [Example 93, 2-{1-[2-(4-methoxyphenyl)ethyl]-1H-imidazol-4-yl}-4-[5-(trifluoromethyl)-1H-1,2,3-triazol-4-yl]pyridine] was tested, and the pIC50 [1] was < 5.00 and the pIC50 [2] was < 5.00.
`Cc1ccc2c(c1)C(Cn1cnc(-c3cc(-c4nn[nH]c4C(F)(F)F)ccn3)c1)CCC2` (stereo not drawn) [Example 103, 2-{1-[(7-methyl-1,2,3,4-tetrahydronaphthalen-1-yl)methyl]-1H-imidazol-4-yl}-4-[5-(trifluoromethyl)-1H-1,2,3-triazol-4-yl]pyridine] was tested, and the pIC50 [1] was < 5.00 and the pIC50 [2] was < 5.00.
With `O=C(c1ccccc1)N1CCC[C@@H](n2cnc(-c3cc(-c4nn[nH]c4C(F)(F)F)ccn3)c2)C1` [Example 89, 2-{1-[(3R)-1-benzoylpiperidin-3-yl]-1H-imidazol-4-yl}-4-[5-(trifluoromethyl)-1H-1,2,3-triazol-4-yl]pyridine] the pIC50 [1] was < 5.00 and the pIC50 [2] was < 5.00.
With `Fc1ccc(F)c(CCn2cnc(-c3cc(-c4nn[nH]c4C(F)(F)F)ccn3)c2)c1` [Example 88, 2-{1-[2-(2,5-difluorophenyl)ethyl]-1H-imidazol-4-yl}-4-[5-(trifluoromethyl)-1H-1,2,3-triazol-4-yl]pyridine] the pIC50 [1] was < 5.00 and the pIC50 [2] was < 5.00.
`FC(F)(F)c1ccc(CCn2cnc(-c3cc(-c4nn[nH]c4C(F)(F)F)ccn3)c2)cc1` [Example 94, 4-[5-(trifluoromethyl)-1H-1,2,3-triazol-4-yl]-2-(1-{2-[4-(trifluoromethyl)phenyl]ethyl}-1H-imidazol-4-yl)pyridine] was tested, and the pIC50 [1] was < 5.00 and the pIC50 [2] was < 5.00.
`CCC(c1ccccc1)n1cnc(-c2cc(-c3nn[nH]c3C(F)(F)F)ccn2)c1` (stereo not drawn) [Example 74, 2-[1-(1-phenylpropyl)-1H-imidazol-4-yl]-4-[5-(trifluoromethyl)-1H-1,2,3-triazol-4-yl]pyridine] was tested, and the pIC50 [1] was < 5.00 and the pIC50 [2] was < 5.00.
